Laboratory results: US11680056B2, “MK2 inhibitors and uses thereof” (Xinthera, Inc., priority 2021, dated 2023)
Like-named read-outs stand apart in the source and are kept apart here.

How the values were obtained:
p38a/PRAK = p38a/PRAK (Homo sapiens (Human), UniProt Q16539); assay: p38a/PRAK biochemical assay: activation of PRAK by p38, FITC-HSP27 peptide phosphorylation (IMAP FP); details: 10-point 1:3 dilution, top dose 300 μM, 60 pM active p38a, 1 nM inactive PRAK, 10 μM ATP, 2 h incubation; for IC50: read-out: p38a/PRAK Enzyme pIC50 (converted)
Chain of p38a/PRAK (Q16539 whole entry): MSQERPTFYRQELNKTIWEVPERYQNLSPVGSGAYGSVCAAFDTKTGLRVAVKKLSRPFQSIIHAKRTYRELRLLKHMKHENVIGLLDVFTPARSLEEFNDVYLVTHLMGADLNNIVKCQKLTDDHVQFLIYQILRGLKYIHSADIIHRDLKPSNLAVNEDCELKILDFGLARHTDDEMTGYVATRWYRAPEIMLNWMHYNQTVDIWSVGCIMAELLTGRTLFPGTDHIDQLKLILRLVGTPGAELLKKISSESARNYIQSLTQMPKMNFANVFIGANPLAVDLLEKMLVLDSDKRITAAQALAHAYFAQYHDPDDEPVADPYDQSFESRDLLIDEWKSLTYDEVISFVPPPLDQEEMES
In short: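 GST-tagged MK2 (F46–H400) and PRAK (M1–Q471), expressed in E. coli, activated by p38 and phosphorylate FITC-HSP27 peptide over 2 h with compound; readout by IMAP fluorescence polarisation (ex 485/em 528 nm). Ten-point 1:3 dilutions, top dose 1 μM for MK2 and 300 μM for PRAK. IC50 after vehicle normalisation; selectivity = IC50(PRAK)/IC50(MK2).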

p38a/MK2 = p38a/MK2 (Homo sapiens (Human), UniProt P49137+Q16539); assay: p38a/MK2 biochemical assay: activation of MK2 by p38, FITC-HSP27 peptide phosphorylation (IMAP FP); details: 10-point 1:3 dilution, 60 pM active p38a, 1 nM inactive MK2, 10 μM ATP, 2 h incubation
Chain of p38a/MK2 (P49137 46-400): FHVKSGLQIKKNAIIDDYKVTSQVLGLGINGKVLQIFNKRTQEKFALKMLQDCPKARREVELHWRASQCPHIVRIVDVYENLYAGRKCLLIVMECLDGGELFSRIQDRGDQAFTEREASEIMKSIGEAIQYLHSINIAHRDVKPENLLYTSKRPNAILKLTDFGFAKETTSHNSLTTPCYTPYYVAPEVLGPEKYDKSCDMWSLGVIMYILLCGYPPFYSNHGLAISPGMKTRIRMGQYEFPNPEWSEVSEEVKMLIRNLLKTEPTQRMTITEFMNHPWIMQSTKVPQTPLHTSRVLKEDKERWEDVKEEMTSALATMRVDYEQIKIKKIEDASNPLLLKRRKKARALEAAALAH
Chain of p38a/MK2 (Q16539 whole entry): as the sequence (Q16539 whole entry) above

[1] = top dose 1 μM, read-out: p38a/MK2 (1 μM) Enzyme pIC50 (converted)
[2] = top dose 10 μM, read-out: p38a/MK2 (10 μM) Enzyme pIC50 (converted)

| IC50 (p38a/PRAK) [nM] | IC50 (p38a/MK2; [1]) [nM] | SMILES | further results |
| --- | --- | --- | --- |
| > 316000 | > 100 | Cc1cnc(-c2cccc(C(C)(C)O)[n+]2[O-])c(F)c1-n1c(C)cc(OCc2ncc(F)cc2F)c(Cl)c1=O (single isomer, unassigned) [Example 62B, rel-3-chloro-4-((3,5-difluoropyridin-2-yl)methoxy)-3′-fluoro-6″-(2-hydroxypropan-2-yl)-5′,6-dimethyl-2-oxo-2H-[1,4′:2′,2″-terpyridine] 1″-oxide] |  |
| > 316000 | > 100 | Cc1cnc(-c2cccc(C(C)(C)O)n2)c(F)c1-n1c(C)cc(OCc2ncc(F)cc2F)c(Cl)c1=O (single isomer, unassigned) [Example 63A, rel-3-chloro-4-[(3,5-difluoropyridin-2-yl)methoxy]-1-[3-fluoro-6′-(2-hydroxypropan-2-yl)-5-methyl-[2,2′-bipyridin]-4-yl]-6-methylpyridin-2-one] |  |
| 316 | 0.316 | Cc1cnc(-c2cccc(C(C)(C)O)n2)c(F)c1-n1c(C)cc(OCc2ncc(F)cc2F)c(Cl)c1=O (single isomer, unassigned) [Example 63B, rel-3-chloro-4-[(3,5-difluoropyridin-2-yl)methoxy]-1-[3-fluoro-6′-(2-hydroxypropan-2-yl)-5-methyl-[2,2′-bipyridin]-4-yl]-6-methylpyridin-2-one] |  |
| 2000 | 2 | [2H]C([2H])(Oc1cc(C)n(-c2cc(-c3ccnc(C(C)(C)O)c3F)ncc2C)c(=O)c1Cl)c1ncc(F)cc1F (single isomer, unassigned) [Example 64A, rel-3-chloro-4-[(3,5-difluoropyridin-2-yl)(2H2)methoxy]-1-[3′-fluoro-2′-(2-hydroxypropan-2-yl)-5-methyl-[2,4′-bipyridin]-4-yl]-6-methylpyridin-2-one] |  |
| > 316000 | > 100 | [2H]C([2H])(Oc1cc(C)n(-c2cc(-c3ccnc(C(C)(C)O)c3F)ncc2C)c(=O)c1Cl)c1ncc(F)cc1F (single isomer, unassigned) [Example 64B, rel-3-chloro-4-[(3,5-difluoropyridin-2-yl)(2H2)methoxy]-1-[3′-fluoro-2′-(2-hydroxypropan-2-yl)-5-methyl-[2,4′-bipyridin]-4-yl]-6-methylpyridin-2-one] |  |
| 200 | 3.98 | [2H]C([2H])(Oc1cc(C)n(-c2c(C)cnc(-c3ccnc(C(C)(C)O)c3F)c2F)c(=O)c1Cl)c1ncc(F)cc1F (single isomer, unassigned) [Example 65A, rel-3-chloro-1-[3,3′-difluoro-2′-(2-hydroxypropan-2-yl)-5-methyl-[2,4′-bipyridin]-4-yl]-4-[(3,5-difluoropyridin-2-yl)(2H2)methoxy]-6-methylpyridin-2-one] |  |
| 79400 | > 100 | [2H]C([2H])(Oc1cc(C)n(-c2c(C)cnc(-c3ccnc(C(C)(C)O)c3F)c2F)c(=O)c1Cl)c1ncc(F)cc1F (single isomer, unassigned) [Example 65B, rel-3-chloro-1-[3,3′-difluoro-2′-(2-hydroxypropan-2-yl)-5-methyl-[2,4′-bipyridin]-4-yl]-4-[(3,5-difluoropyridin-2-yl)(2H2)methoxy]-6-methylpyridin-2-one] |  |
| > 316000 | > 100 | [2H]C([2H])([2H])C(O)(c1nccc(-c2ncc(C)c(-n3c(C)cc(OCc4ncc(F)cc4F)c(Cl)c3=O)c2F)n1)C([2H])([2H])[2H] (single isomer, unassigned) [Example 66A, rel-3-chloro-4-((3,5-difluoropyridin-2-yl)methoxy)-3′-fluoro-2′-(2-(2-hydroxypropan-2-yl-1,1,1,3,3,3-d6)pyrimidin-4-yl)-5′,6-dimethyl-2H-[1,4′-bipyridin]-2-one] |  |
| 1000 | 6.31 | [2H]C([2H])([2H])C(O)(c1nccc(-c2ncc(C)c(-n3c(C)cc(OCc4ncc(F)cc4F)c(Cl)c3=O)c2F)n1)C([2H])([2H])[2H] (single isomer, unassigned) [Example 66B, rel-3-chloro-4-((3,5-difluoropyridin-2-yl)methoxy)-3′-fluoro-2′-(2-(2-hydroxypropan-2-yl-1,1,1,3,3,3-d6)pyrimidin-4-yl)-5′,6-dimethyl-2H-[1,4′-bipyridin]-2-one] |  |
| 316 | 1.58 | [2H]C([2H])(Oc1cc(C)n(-c2c(C)cnc(-c3ccnc(C(O)(C([2H])([2H])[2H])C([2H])([2H])[2H])n3)c2F)c(=O)c1Cl)c1ncc(F)cc1F (single isomer, unassigned) [Example 67A, rel-3-chloro-4-((3,5-difluoropyridin-2-yl)methoxy-d2)-3′-fluoro-2′-(2-(2-hydroxypropan-2-yl-1,1,1,3,3,3-d6)pyrimidin-4-yl)-5′,6-dimethyl-2H-[1,4′-bipyridin]-2-one] |  |
| 31600 | 79.4 | [2H]C([2H])(Oc1cc(C)n(-c2c(C)cnc(-c3ccnc(C(O)(C([2H])([2H])[2H])C([2H])([2H])[2H])n3)c2F)c(=O)c1Cl)c1ncc(F)cc1F (single isomer, unassigned) [Example 67B, rel-3-chloro-4-((3,5-difluoropyridin-2-yl)methoxy-d2)-3′-fluoro-2′-(2-(2-hydroxypropan-2-yl-1,1,1,3,3,3-d6)pyrimidin-4-yl)-5′,6-dimethyl-2H-[1,4′-bipyridin]-2-one] |  |
| 398 | 0.2 | [2H]C([2H])(Oc1cc(C)n(-c2c(C)cnc(-c3cccc(C(C)(C)O)[n+]3[O-])c2F)c(=O)c1Cl)c1ncc(F)cc1F (single isomer, unassigned) [Example 68B, rel-4′-{3-chloro-4-[(3,5-difluoropyridin-2-yl) (2H2)methoxy]-6-methyl-2-oxopyridin-1-yl}-3′-fluoro-6-(2-hydroxypropan-2-yl)-5′-methyl-[2,2′-bipyridin]-1-ium-1-olate] |  |
|  |  | Cc1cnc(-c2cccc([C@@](C)(O)CO)n2)cc1-n1c(C)cc(OCc2ncc(F)cc2F)c(Cl)c1=O (stereo in doubt) [Example 36A, rel-3-chloro-4-[(3,5-difluoropyridin-2-yl)methoxy]-2′-[6-(1,2-dihydroxypropan-2-yl)pyridin-2-yl]-5′,6-dimethyl-[1,4′-bipyridin]-2-one] | p38a/PRAK Enzyme pIC50 (p38a/PRAK): 5.3; p38a/MK2 (1 μM) Enzyme pIC50 (p38a/MK2; top dose 1 μM): 8.3 |
| 39800 |  | Cc1sc(-c2ccnc(C(C)(C)O)n2)nc1-n1c(C)cc(OCc2ncc(F)cc2F)c(Cl)c1=O [Example 17, 3-chloro-4-[(3,5-difluoropyridin-2-yl)methoxy]-1-{2-[2-(2-hydroxypropan-2-yl)pyrimidin-4-yl]-5-methyl-1,3-thiazol-4-yl}-6-methylpyridin-2-one] | IC50 (p38a/MK2; [2]): 2510 nM |
| 6310 | 25.1 | Cc1cnc(-n2ccc(C(=O)NC3CC3)n2)cc1-n1c(C)cc(OCc2ncc(F)cc2F)c(Cl)c1=O [Example 44A, rel-1-{3-chloro-4-[(3,5-difluoropyridin-2-yl)methoxy]-5′,6-dimethyl-2-oxo-[1,4′-bipyridin]-2′-yl}-N-cyclopropylpyrazole-3-carboxamide] |  |
| 1000 | 1.26 | [2H]C([2H])(Oc1cc(C)n(-c2c(C)cnc(-n3ccc(C(C)(C)O)n3)c2F)c(=O)c1Cl)c1ncc(F)cc1F [Example 58A, rel-3-chloro-4-[(3,5-difluoropyridin-2-yl)(2H2)methoxy]-3′-fluoro-2′-[3-(2-hydroxypropan-2-yl)pyrazol-1-yl]-5′,6-dimethyl-[1,4′-bipyridin]-2-one] |  |
| > 316000 | > 100 | [2H]C([2H])(Oc1cc(C)n(-c2c(C)cnc(-c3cccc(C(C)(C)O)[n+]3[O-])c2F)c(=O)c1Cl)c1ncc(F)cc1F [Example 68A, rel-4′-{3-chloro-4-[(3,5-difluoropyridin-2-yl) (2H2)methoxy]-6-methyl-2-oxopyridin-1-yl}-3′-fluoro-6-(2-hydroxypropan-2-yl)-5′-methyl-[2,2′-bipyridin]-1-ium-1-olate] |  |

| SMILES | IC50 (p38a/PRAK) [nM] | IC50 (p38a/MK2; [1]) [nM] | further results |
| --- | --- | --- | --- |
| Cc1cnc(-c2ccnc(C(C)(C)O)n2)cc1-c1c(C)cc(OCc2ncc(F)cc2F)c(Cl)c1F [Example 1, 2-[4-(4-{3-chloro-4-[(3,5-difluoropyridin-2-yl)methoxy]-2-fluoro-6-methylphenyl}-5-methylpyridin-2-yl)pyrimidin-2-yl]propan-2-ol] | > 316000 |  | p38a/MK2 (10 μM) Enzyme pIC50 (p38a/MK2; top dose 10 μM): 5.2 |
| Cc1cnnc(COc2cc(C)n(-c3cc(-c4ccnc(C(C)(C)O)n4)ncc3C)c(=O)c2Cl)c1 [Example 28A, rel-3-chloro-2′-[2-(2-hydroxypropan-2-yl)pyrimidin-4-yl]-5′,6-dimethyl-4-[(5-methylpyridazin-3-yl)methoxy]-[1,4′-bipyridin]-2-one] | > 316000 |  | IC50 (p38a/MK2; [2]): 3980 nM |
